Counter-ions that a name gives are not always drawn.
Assays:
[1] = test system: differentiated keratinocytes; experiment: Microarray gene expression in differentiated primary human epidermal keratinocytes dosed with piroctone olamine; type: cell-based; conditions: 7.5 µM, 24 hours
Procedure: Primary human epidermal keratinocytes were obtained from Lonza. Cells were cultured in monolayer in KGM-Gold medium. For the experiment keratinocytes were differentiated by incubating for five days in KGM-Gold medium supplemented with 1.2 mM calcium chloride. Piroctone olamine was supplied by Sigma. Differentiated keratinocyte cultures were dosed with 7.5 µM piroctone olamine and 0.1% ethanol (Group 1, n=4), or with 0.1% ethanol only (Group 2, n=4) and incubated for 24 hours. Cells were then lysed in RLT buffer and subjected to RNA extraction using Qiagen RNeasy Micro Kit according to manufacturer’s instructions. The levels of gene expression were determined using Agilent SurePrint G3 Human Gene Expression 8x60k v3 Microarrays in conjunction with Agilent SureHyb hybridisation and SureScan High-Resolution scanning technology, in accordance with manufacturer’s protocol. Microarray data processing and statistical analysis was carried out in Agilent GeneSpring GX14 software. To identify differentially expressed genes in piroctone olamine treated cultures (Group 1) compared to vehicle control cultures (Group 2), t-test was applied (p≤0.05) with or without Benjamini-Hochberg false discovery rate correction (FDR≤0.05).

[2] = test system: ex vivo human skin explants; experiment: RNA sequencing gene expression in NativeSkin ex vivo human skin explants treated topically with piroctone olamine; type: cell-based; conditions: 24 hours
Procedure: Human ex vivo skin model production and piroctone olamine treatment were conducted by Genoskin (France). NativeSkin models of 15 mm diameter ex vivo human skin explants with silicon rings were produced from three donors and cultured in NativeSkin culture medium under 5% CO2 humidified atmosphere in 37° C. Skin explants were treated topically with 50 ul of solution containing 30 uM piroctone olamine in PBS with 1% ethanol (Group 1, n=3), or control PBS solution containing 1% ethanol (Group 2, n=3), and were incubated for 24 hours. Following one day of topical treatment, piroctone olamine and control solutions were removed using cotton swabs and each model was unmolded from silicon ring and re-punch at 12 mm diameter. Half of each skin biopsy was processed for RNA using OMNI-TH Rotor Stator tissue homogeniser and Qiagen RNeasy Fibrous Tissue RNA Mini Kit according to manufacturer’s instructions. RNA sequencing was used for gene expression analysis. Lexogen QuantSeq3′ FWD libraries were prepared from RNA samples and sequenced via single read (1x75 bp) performed using NextSeq 500/550 Mid-Output Kit on the NextSeq 500 Illumina platform. FASTQ data files were then uploaded to the BlueBee genomic platform and read-trimming, alignment, and read count were performed using QuantSeq data processing pipeline. Differential gene expression analysis for Group 1/Group 2 comparison was run in Bluebee genomic platform using QuantSeq DE pipeline (FDR corrected p≤0.05).

[3] = vs 0.1% ethanol control, Comeodesmosome formation
[4] = vs 0.1% ethanol control, Cornified envelop formation
[5] = vs 0.1% ethanol control, Tight junction formation
[6] = 30 uM topical in PBS with 1% ethanol, vs control, Tight junction formation

## Cc1cc(CC(C)CC(C)(C)C)n(O)c(=O)c1 (stereo not shown) [piroctone olamine, 1-hydroxy-4-methyl-6-(2,4,4-trimethylpentyl)-2(1H) pyridinone monoethanolamine salt]
[1]; differentiated keratinocytes
  gene expression of epidermal barrier biomarkers compared to control (in words): clear increase in gene expression
[1]; [3]
  Fold Change (Group ⅟Group 2) gene expression, Desmocolin 2 (DSC2): 2.49
  Fold Change (Group ⅟Group 2) gene expression, Desmoglein 4 (DSG4): 2.44
  Fold Change (Group ⅟Group 2) gene expression, Plakophilin 1 (PKP1): 1.75
[1]; vs 0.1% ethanol control, Comeodesmosome formation, not significant
  Fold Change (Group ⅟Group 2) gene expression, Comeodesmosin (CDSN): 1.20
[1]; [4]
  Fold Change (Group ⅟Group 2) gene expression, Involucrin (IVL): 1.40
  Fold Change (Group ⅟Group 2) gene expression, Late cornified envelope 3A (LCE3A): 2.58
  Fold Change (Group ⅟Group 2) gene expression, Late cornified envelope 3B (LCE3B): 1.67
  Fold Change (Group ⅟Group 2) gene expression, Late cornified envelope 3C (LCE3C): 2.71
  Fold Change (Group ⅟Group 2) gene expression, Small proline-rich protein 2D (SPRR2D): 1.52
[1]; [5]
  Fold Change (Group ⅟Group 2) gene expression, Claudin 4 (CLDN4): 1.76
  Fold Change (Group ⅟Group 2) gene expression, Claudin 7 (CLDN7): 1.65
  Fold Change (Group ⅟Group 2) gene expression, Claudin 17 (CLDN17): 2.99
  Fold Change (Group ⅟Group 2) gene expression, Claudin 25 (CLDN25): 2.05
[1]; vs 0.1% ethanol control, Tight junction formation, not significant
  Fold Change (Group ⅟Group 2) gene expression, Zona Occludens 1 (ZO1 (TJP1)): 1.3
[2]; 30 uM topical in PBS with 1% ethanol, vs control, Cornified envelop formation
  Fold Change (Group 1/Group 2) gene expression, Involucrin (IVL): 2.7
[2]; [6]
  Fold Change (Group 1/Group 2) gene expression, Claudin 1 (CLDN 1): 2.1
  Fold Change (Group 1/Group 2) gene expression, Zona Occludens 2 (ZO2 (TJP2)): 3.5
[2]; 30 uM topical, human skin explants
  gene expression of epidermal barrier biomarkers compared to control (in words): increase in gene expression

From patent US20230114143A1, “METHOD OF TREATING THE SCALP” (Conopco, Inc., d/b/a UNILEVER, priority 2020, published 2023)
